The results in this text go back to patent US20260124214A1, “HETEROCYCLIC COMPOUNDS FOR USE IN THE TREATMENT OF CANCER” (ARTIOS PHARMA LIMITED, priority 2021, published 2026).

Structures can show the parent of a compound that is named as a salt.

The target in this experiment is T1, Human Polθ polymerase domain (aa1820-2590) (Homo sapiens, UniProt O75417).
T1 construct: Human Polθ polymerase domain (aa1820-2590) was expressed in E. Coli; made in house; host or cells: E. coli
T1 sequence (O75417 1820-2590): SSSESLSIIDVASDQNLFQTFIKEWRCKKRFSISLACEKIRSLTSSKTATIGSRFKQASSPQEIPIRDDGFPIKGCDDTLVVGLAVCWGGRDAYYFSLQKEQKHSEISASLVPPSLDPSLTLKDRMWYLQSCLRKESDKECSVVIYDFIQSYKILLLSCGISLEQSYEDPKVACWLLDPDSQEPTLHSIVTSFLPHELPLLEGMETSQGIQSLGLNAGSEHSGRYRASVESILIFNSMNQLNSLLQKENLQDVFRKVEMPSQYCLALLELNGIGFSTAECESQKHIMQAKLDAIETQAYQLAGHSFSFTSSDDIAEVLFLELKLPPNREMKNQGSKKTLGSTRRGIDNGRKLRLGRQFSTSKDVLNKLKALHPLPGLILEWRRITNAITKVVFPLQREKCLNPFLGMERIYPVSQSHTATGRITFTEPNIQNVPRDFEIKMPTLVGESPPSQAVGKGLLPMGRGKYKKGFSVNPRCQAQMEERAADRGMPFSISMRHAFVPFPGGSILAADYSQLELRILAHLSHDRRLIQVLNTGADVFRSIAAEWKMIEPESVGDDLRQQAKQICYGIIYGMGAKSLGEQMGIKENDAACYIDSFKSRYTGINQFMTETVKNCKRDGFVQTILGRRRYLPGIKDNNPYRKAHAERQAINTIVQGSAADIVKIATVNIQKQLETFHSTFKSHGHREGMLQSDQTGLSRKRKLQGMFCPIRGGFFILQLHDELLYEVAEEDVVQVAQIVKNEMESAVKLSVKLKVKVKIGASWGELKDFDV
As to the kind of experiment: Polθ Polymerase Domain WT KI Assay (PicoGreen). It is filed as biochemical. To be noted: 100 nM DNA substrate, 0.156 nM Polθ, initial rates vs inhibitor concentration. The method in brief:
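E. coli-expressed human Polθ polymerase domain (aa1820-2590) on annealed DNA II Short/Long primer-template (1.2:1), in 25 mM Tris pH 7.5, NaCl, 5% glycerol, 0.01% Triton X-100, 0.1 mg/ml BSA, 1 mM DTT, 1% DMSO. EDTA-quenched timepoints to 180 min, PicoGreen fluorescence. Initial rates vs inhibitor concentration fitted four-parameter for KI.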
On to `COCCN1CCC(CN2C[C@H]3CC(=O)N(c4cc(C(F)(F)F)cc(C)n4)[C@@H]3C(=O)N(C)c3cccc(Cl)c32)CC1` [Example 87, (3aR,11aS)-6-Chloro-5-((1-(2-methoxyethyl)piperidin-4-yl)methyl)-10-methyl-1-(6-methyl-4-(trifluoromethyl)pyridin-2-yl)-1,3a,4,5,10,11a-hexahydro-2H-benzo[b]pyrrolo[2,3-f][1,4]diazocine-2,11(3H)-dione], for which the affinity, expressed as Ki, was 1.48 nM. The figure for `Cc1cc(C(F)(F)F)cc(N2C(=O)C[C@@H]3CN(CC4CCN(CCO)CC4)c4c(C)cccc4N(C)C(=O)[C@H]32)n1` [Example 88, (3aR,11aS)-5-((1-(2-Hydroxyethyl)piperidin-4-yl)methyl)-6,10-dimethyl-1-(6-methyl-4-(trifluoromethyl)pyridin-2-yl)-1,3a,4,5,10,11a-hexahydro-2H-benzo[b]pyrrolo[2,3-f][1,4]diazocine-2,11(3H)-dione] is 1.3 nM; for `Cc1cc(C(F)(F)F)cc(N2C(=O)C[C@@H]3CN(CCOCCN(C)C)c4c(Cl)cccc4N(C)C(=O)[C@H]32)n1` [Example 89, (3aR,11aS)-6-Chloro-5-(2-(2-(dimethylamino)ethoxy)ethyl)-10-methyl-1-(6-methyl-4-(trifluoromethyl)pyridin-2-yl)-1,3a,4,5,10,11a-hexahydro-2H-benzo[b]pyrrolo[2,3-f][1,4]diazocine-2,11(3H)-dione hydrochloride] it is 1.85 nM. With `Cc1cc(C(F)(F)F)cc(N2C(=O)C[C@@H]3CN(CCOCCN(C)C)c4c(C)cccc4N(C)C(=O)[C@H]32)n1` [Example 90, (3aR,11aS)-5-(2-(2-(Dimethylamino)ethoxy)ethyl)-6,10-dimethyl-1-(6-methyl-4-(trifluoromethyl)pyridin-2-yl)-1,3a,4,5,10,11a-hexahydro-2H-benzo[b]pyrrolo[2,3-f][1,4]diazocine-2,11(3H)-dione] the figure was 0.991 nM. With `Cc1cc(C(F)(F)F)cc(N2C(=O)C[C@@H]3CN(CC(=O)N4CCN(C)CC4)c4c(C)cccc4N(C)C(=O)[C@H]32)n1` [Example 93, (3aR,11aS)-6,10-Dimethyl-1-(6-methyl-4-(trifluoromethyl)pyridin-2-yl)-5-(2-(4-methylpiperazin-1-yl)-2-oxoethyl)-1,3a,4,5,10,11a-hexahydro-2H-benzo[b]pyrrolo[2,3-f][1,4]diazocine-2,11(3H)-dione] the figure was 1.19 nM; with `Cc1cc(C(F)(F)F)cc(N2C(=O)C[C@@H]3CN(Cc4ccncc4)c4c(Cl)cccc4N(C)C(=O)[C@H]32)n1` [Example 94, (3aR,11aS)-6-Chloro-10-methyl-1-(6-methyl-4-(trifluoromethyl)pyridin-2-yl)-5-(pyridin-4-ylmethyl)-1,3a,4,5,10,11a-hexahydro-2H-benzo[b]pyrrolo[2,3-f][1,4]diazocine-2,11(3H)-dione], 3.29 nM; with `Cc1cc(C(F)(F)F)cc(N2C(=O)C[C@@H]3CN(Cc4cccnc4)c4c(Cl)cccc4N(C)C(=O)[C@H]32)n1` [Example 95, (3aR,11aS)-6-Chloro-10-methyl-1-(6-methyl-4-(trifluoromethyl)pyridin-2-yl)-5-(pyridin-3-ylmethyl)-1,3a,4,5,10,11a-hexahydro-2H-benzo[b]pyrrolo[2,3-f][1,4]diazocine-2,11(3H)-dione], 3.7 nM. As for `Cc1cc(C(F)(F)F)cc(N2C(=O)C[C@@H]3CN(CC4CCCNC4)c4c(F)cccc4N(C)C(=O)[C@H]32)n1` (stereo partly drawn) [Example 97, (3aR,11aS)-6-Fluoro-10-methyl-1-(6-methyl-4-(trifluoromethyl)pyridin-2-yl)-5-(piperidin-3-ylmethyl)-1,3a,4,5,10,11a-hexahydro-2H-benzo[b]pyrrolo[2,3-f][1,4]diazocine-2,11(3H)-dione hydrochloride], the Ki (usually a measure of affinity in units of concentration, obtained from inhibition or displacement) was found to be 8.7 nM.
